Columns and labels:
[1] = target: JAK 1 (Homo sapiens (Human), UniProt P23458); experiment: Biochemical potency on JAK1, TR-FRET LANCE Ultra kinase assay (compounds 1-92); details: ATP at Km, read-out: JAK1 inhibitory activity (pIC50 class) (converted)
Procedure: (§1) Biochemical Potency on JAK1, JAK2, JAK3 and Tyk2 Assay Principle The objective of this study was to assess the capability of compounds to inhibit all 4 JAK isoforms activity in a cell-free environment. Assay for JAK 1, JAK 2, JAK 3 and TYK2 were performed by Time-resolved fluorescence resonance energy transfer (TR-FRET) technology. It consists in the interaction of two labelled binding partners detected by the energy transfer from an excited donor to an acceptor dye and measurement of light emission by the acceptor dye. LANCE Ultra kinase assay was used. In presence of JAK 1, JAK 2, JAK 3 and TYK2 kinases and ATP (corresponding to Km), the ULight peptide substrate (LANCE Ulight-JAK-1 ([…]) Peptide, Perkin Elmer, TRF0121) is phosphorylated. It is then captured by Eu-anti-phospho-substrate antibody (LANCE Eu-W1024 Anti-phosphotyrosine (PT66), Perkin Elmer, AD0069), which bring the Eu-chelate donor and ULight acceptor dyes into close proximity. Upon excitation at 320 nm, the Eu-chelate transfers its energy to the ULight dye, resulting in a fluorescent light emission at 665 nm. Compound Testing Serial dilutions of compounds in pure DMSO are prepared from 10 mM DMSO stock solutions. Compounds were tested in 384-well plate for 11 consecutive 5-fold dilutions starting from 20 μM highest concentration (20 μM-[…]). 200 nL of compound were transferred from mother plate to test plate by using Mosquito (TTP labtech). Assay was performed in 384-well Perkin Elmer test plate in 20 μL assay volume (kinase reaction) and 40 μL total volume (stopping reagent and antibody detection reagents). In 10 μL of substrate solution (peptide+ATP) 30/50/20/10 nM of peptide and 20/0.7/0.2/12 μM of ATP were added for JAK 1, JAK 2, JAK 3 and TYK2 respectively. 10 μL of enzyme solution was added to kinase reaction at these concentrations: 0.15/0.083/0.025/0.144 ng/μL of JAK 1, JAK 2, JAK 3 and TYK2 respectively. After shaking and 1.5 h of incubation at r.t., 20 μL of Stop (10 μL EDTA) and Detection mixture (10 μL Europium-anti-phospho antibody, final: 0.5 nM) were added. Reading was performed after 1 h of incubation on a EnVision 2104 reader (Perkin Elmer). Calculation of IC50 data, curves and QC analysis was performed by using Excel tool and GraphPadPrism software, v9. Briefly, individual concentration-effect curves are generated by plotting the logarithm of the tested concentration of tested compounds (X) vs. corresponding percent inhibition values (Y) using least squares (ordinary) fit. Best fit IC50 values are calculated using Log(inhibitor) vs. normalized response-Variable slope equation, where Y=100/(1+10^((Log IC50-X)*HillSlope)). QC criteria parameters (Z', S:B, R2, HillSlope) were checked for every IC50 curve. Calculation of IC50 data, curves and QC analysis were made using Excel tools and GraphPadPrism software. QC criteria parameters: Z'≥0.5, Hill Slope range 0.5 to 5, S:B>2.

[2] = target: JAK 2 (Homo sapiens (Human), UniProt O60674); experiment: Biochemical potency on JAK2, TR-FRET LANCE Ultra kinase assay (compounds 1-92); details: ATP at Km, read-out: JAK2 inhibitory activity (pIC50 class) (converted)
JAK 2, sequence (O60674 whole entry): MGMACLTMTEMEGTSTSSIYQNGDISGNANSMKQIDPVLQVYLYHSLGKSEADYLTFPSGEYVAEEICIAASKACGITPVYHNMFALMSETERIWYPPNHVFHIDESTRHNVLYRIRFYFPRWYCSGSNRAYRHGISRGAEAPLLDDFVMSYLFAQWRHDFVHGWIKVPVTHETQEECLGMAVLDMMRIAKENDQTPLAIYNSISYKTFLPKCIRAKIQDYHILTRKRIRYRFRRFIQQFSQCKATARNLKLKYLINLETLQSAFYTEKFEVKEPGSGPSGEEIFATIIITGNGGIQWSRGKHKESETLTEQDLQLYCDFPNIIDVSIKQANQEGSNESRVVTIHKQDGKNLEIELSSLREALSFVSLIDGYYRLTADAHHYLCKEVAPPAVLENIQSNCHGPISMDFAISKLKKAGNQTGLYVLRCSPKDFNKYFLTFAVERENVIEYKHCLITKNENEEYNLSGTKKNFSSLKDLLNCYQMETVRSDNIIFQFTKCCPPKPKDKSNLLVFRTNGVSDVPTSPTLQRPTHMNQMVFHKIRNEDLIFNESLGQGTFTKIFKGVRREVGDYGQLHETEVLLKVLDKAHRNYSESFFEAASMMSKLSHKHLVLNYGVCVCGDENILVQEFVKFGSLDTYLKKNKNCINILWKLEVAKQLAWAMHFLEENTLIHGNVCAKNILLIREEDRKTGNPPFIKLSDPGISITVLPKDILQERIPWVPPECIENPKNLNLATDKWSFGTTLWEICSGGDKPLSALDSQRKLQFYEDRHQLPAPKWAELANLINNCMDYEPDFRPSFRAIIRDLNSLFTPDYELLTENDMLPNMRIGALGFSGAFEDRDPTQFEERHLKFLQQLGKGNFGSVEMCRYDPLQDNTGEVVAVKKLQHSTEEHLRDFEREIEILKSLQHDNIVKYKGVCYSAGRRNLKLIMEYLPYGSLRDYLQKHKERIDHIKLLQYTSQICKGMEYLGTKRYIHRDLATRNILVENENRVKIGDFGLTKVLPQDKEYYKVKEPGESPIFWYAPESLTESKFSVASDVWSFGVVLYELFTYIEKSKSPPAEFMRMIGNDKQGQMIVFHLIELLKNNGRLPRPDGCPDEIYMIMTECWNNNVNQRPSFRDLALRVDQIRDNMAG
Procedure: as §1

[3] = target: JAK 3 (Homo sapiens (Human), UniProt P52333); experiment: Biochemical potency on JAK3, TR-FRET LANCE Ultra kinase assay (compounds 1-92); details: ATP at Km, read-out: JAK3 inhibitory activity (pIC50 class) (converted)
JAK 3, sequence (P52333 whole entry): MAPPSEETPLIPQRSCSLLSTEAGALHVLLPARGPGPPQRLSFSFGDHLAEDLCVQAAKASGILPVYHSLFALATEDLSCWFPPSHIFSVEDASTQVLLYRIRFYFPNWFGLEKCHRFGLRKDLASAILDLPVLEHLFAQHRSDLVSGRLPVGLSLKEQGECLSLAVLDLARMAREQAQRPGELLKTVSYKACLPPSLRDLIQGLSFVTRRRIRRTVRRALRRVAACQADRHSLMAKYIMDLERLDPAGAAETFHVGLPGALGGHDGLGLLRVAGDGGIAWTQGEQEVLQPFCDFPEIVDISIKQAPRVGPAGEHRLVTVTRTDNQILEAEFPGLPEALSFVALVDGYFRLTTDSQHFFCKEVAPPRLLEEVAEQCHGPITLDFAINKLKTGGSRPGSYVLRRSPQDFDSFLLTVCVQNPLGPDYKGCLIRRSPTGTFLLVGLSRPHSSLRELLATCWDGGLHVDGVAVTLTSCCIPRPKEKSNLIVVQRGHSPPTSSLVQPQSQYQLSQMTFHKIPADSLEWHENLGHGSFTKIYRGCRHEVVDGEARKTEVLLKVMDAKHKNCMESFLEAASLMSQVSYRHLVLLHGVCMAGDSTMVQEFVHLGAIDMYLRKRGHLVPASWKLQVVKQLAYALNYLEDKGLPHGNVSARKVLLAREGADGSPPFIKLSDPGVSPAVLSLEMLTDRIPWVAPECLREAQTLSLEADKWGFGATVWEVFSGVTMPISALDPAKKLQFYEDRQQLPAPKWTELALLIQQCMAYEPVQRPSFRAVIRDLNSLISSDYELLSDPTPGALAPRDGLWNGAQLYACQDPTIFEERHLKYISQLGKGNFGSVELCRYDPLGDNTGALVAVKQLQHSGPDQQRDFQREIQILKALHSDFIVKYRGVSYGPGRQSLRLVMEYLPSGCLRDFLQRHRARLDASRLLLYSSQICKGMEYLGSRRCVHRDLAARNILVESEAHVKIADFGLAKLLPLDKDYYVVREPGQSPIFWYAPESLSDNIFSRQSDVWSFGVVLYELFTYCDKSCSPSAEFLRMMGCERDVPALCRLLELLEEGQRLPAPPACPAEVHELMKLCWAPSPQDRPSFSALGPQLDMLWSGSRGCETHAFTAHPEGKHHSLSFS
Procedure: as §1

[4] = target: TYK2 (Homo sapiens (Human), UniProt P29597); experiment: Biochemical potency on Tyk2, TR-FRET LANCE Ultra kinase assay (compounds 1-92); details: ATP at Km, read-out: Tyk2 inhibitory activity (pIC50 class) (converted)
TYK2, sequence (P29597 whole entry): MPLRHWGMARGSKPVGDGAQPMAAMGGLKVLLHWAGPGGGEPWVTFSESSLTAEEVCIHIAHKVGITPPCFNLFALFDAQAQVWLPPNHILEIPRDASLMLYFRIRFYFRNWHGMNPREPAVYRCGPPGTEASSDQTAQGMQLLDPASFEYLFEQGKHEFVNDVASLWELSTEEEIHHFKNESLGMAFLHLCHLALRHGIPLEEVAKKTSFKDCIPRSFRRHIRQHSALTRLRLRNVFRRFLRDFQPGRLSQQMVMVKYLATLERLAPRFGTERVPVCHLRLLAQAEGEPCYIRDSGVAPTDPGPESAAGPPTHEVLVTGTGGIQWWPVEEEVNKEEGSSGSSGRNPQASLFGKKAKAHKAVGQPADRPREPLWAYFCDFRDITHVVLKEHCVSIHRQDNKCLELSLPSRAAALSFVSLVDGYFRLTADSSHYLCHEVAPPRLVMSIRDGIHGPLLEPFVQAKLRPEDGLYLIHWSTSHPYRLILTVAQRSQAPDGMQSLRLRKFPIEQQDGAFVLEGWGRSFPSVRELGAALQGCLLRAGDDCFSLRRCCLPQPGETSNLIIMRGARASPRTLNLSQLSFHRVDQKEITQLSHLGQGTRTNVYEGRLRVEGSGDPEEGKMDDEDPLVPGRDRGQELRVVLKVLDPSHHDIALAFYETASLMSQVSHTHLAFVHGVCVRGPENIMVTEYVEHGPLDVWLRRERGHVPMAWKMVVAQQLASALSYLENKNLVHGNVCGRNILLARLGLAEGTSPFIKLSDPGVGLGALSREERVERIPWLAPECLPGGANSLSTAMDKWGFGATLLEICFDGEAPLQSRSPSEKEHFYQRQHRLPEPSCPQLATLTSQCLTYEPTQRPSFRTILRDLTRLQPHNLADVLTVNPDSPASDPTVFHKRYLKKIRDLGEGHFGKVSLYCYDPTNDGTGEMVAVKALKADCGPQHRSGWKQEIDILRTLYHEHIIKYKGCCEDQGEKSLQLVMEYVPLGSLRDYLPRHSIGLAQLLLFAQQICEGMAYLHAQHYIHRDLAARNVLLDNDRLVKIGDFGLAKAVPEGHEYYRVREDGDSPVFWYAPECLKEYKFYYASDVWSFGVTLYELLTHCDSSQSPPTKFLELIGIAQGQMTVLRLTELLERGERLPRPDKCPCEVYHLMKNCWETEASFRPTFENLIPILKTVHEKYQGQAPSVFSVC
Procedure: as §1

JAK 1, sequence (P23458 whole entry, canonical isoform): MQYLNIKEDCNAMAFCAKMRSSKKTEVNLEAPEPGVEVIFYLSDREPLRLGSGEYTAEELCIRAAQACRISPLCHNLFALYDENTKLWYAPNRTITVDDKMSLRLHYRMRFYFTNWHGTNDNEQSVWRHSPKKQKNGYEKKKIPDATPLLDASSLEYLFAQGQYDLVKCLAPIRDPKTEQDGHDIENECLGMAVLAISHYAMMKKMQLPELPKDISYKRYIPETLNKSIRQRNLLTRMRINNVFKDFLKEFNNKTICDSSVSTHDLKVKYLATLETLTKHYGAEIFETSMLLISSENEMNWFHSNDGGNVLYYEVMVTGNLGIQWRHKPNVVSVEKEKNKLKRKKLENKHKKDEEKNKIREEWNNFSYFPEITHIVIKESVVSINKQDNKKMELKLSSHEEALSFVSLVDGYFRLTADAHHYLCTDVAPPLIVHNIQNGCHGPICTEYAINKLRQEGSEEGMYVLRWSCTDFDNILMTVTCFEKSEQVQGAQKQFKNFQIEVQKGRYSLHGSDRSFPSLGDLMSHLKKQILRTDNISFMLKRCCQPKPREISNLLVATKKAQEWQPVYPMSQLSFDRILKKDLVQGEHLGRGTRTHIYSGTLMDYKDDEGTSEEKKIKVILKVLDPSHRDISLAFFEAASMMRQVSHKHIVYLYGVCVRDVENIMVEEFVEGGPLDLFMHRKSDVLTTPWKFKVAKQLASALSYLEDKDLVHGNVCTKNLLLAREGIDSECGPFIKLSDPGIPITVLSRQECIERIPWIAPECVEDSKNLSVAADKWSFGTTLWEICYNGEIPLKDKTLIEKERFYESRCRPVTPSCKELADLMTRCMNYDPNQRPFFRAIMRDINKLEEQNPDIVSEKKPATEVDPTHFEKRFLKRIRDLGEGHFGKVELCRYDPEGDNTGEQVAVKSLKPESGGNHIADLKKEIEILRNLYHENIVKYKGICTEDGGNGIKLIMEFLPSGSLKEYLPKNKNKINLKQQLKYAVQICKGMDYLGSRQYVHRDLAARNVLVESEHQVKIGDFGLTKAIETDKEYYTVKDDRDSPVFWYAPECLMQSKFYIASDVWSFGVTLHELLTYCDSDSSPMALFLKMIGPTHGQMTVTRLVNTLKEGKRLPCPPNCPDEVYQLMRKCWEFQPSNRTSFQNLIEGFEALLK

Compound | IC50 [1] | IC50 [2] | IC50 [3] | IC50 [4]
COc1cc(NS(C)(=O)=O)ccc1-n1nc(NCCN(C)CCF)c2cnc(-c3cnn4cccnc34)cc21 [Example 39, N-(4-(3-((2-((2-fluoroethyl)(methyl)amino)ethyl)amino)-6-(pyrazolo[1,5-a]pyrimidin-3-yl)-1H-pyrazolo[4,3-c]pyridin-1-yl)-3-methoxyphenyl)methanesulfonamide] | ≤ 5.01 nM | ≤ 5.01 nM | ≤ 5.01 nM | 5.01 to 50.1 nM
COC(=O)NCc1ccc(-n2nc(C)c3cnc(-c4cnn5cccnc45)cc32)c(OC)c1 [Example 69, methyl (3-methoxy-4-(3-methyl-6-(pyrazolo[1,5-a]pyrimidin-3-yl)-1H-pyrazolo[4,3-c]pyridin-1-yl)benzyl)carbamate] | > 50.1 nM | 5.01 to 50.1 nM | 5.01 to 50.1 nM | > 50.1 nM
COc1cc(NS(C)(=O)=O)ccc1-n1nc(NCCN2CCCCC2)c2cnc(-c3cnn4cccnc34)cc21 [Example 37, N-(3-methoxy-4-(3-((2-(piperidin-1-yl)ethyl)amino)-6-(pyrazolo[1,5-a]pyrimidin-3-yl)-1H-pyrazolo[4,3-c]pyridin-1-yl)phenyl)methanesulfonamide] | ≤ 5.01 nM | ≤ 5.01 nM | ≤ 5.01 nM | 5.01 to 50.1 nM
CNS(=O)(=O)c1ccc(-n2nc(NCCN3CCOCC3)c3cnc(-c4cnn5cccnc45)cc32)c(OC)c1 [Example 50, 3-methoxy-N-methyl-4-(3-((2-morpholinoethyl)amino)-6-(pyrazolo[1,5-a]pyrimidin-3-yl)-1H-pyrazolo[4,3-c]pyridin-1-yl)benzenesulfonamide] | ≤ 5.01 nM | ≤ 5.01 nM | ≤ 5.01 nM | 5.01 to 50.1 nM
COc1cc(CNS(C)(=O)=O)ccc1-n1nc(C(=O)NCCCN(C)C)c2cnc(-c3cnn4cccnc34)cc21 [Example 59, N-(3-(dimethylamino)propyl)-1-(2-methoxy-4-(methylsulfonamidomethyl)phenyl)-6-(pyrazolo[1,5-a]pyrimidin-3-yl)-1H-pyrazolo[4,3-c]pyridine-3-carboxamide] | ≤ 5.01 nM | 5.01 to 50.1 nM | 5.01 to 50.1 nM | 5.01 to 50.1 nM
COc1cc(NS(=O)(=O)C2CC2)ccc1-n1nc(NCCCN2CCOCC2)c2cnc(-c3cnn4cccnc34)cc21 [Example 33, N-(3-methoxy-4-(3-((3-morpholinopropyl)amino)-6-(pyrazolo[1,5-a]pyrimidin-3-yl)-1H-pyrazolo[4,3-c]pyridin-1-yl)phenyl)cyclopropanesulfonamide] | 5.01 to 50.1 nM | 5.01 to 50.1 nM | 5.01 to 50.1 nM | 5.01 to 50.1 nM
COc1cc(CNC(=O)Nc2ccccc2)ccc1-n1nc(C)c2cnc(-c3cnn4cccnc34)cc21 [Example 72, 1-(3-methoxy-4-(3-methyl-6-(pyrazolo[1,5-a]pyrimidin-3-yl)-1H-pyrazolo[4,3-c]pyridin-1-yl)benzyl)-3-phenylurea] | > 50.1 nM | 5.01 to 50.1 nM | 5.01 to 50.1 nM | > 50.1 nM
CNC(=O)NCc1ccc(-n2nc(C)c3cnc(-c4cnn5cccnc45)cc32)c(OC)c1 [Example 71, 1-(3-methoxy-4-(3-methyl-6-(pyrazolo[1,5-a]pyrimidin-3-yl)-1H-pyrazolo[4,3-c]pyridin-1-yl)benzyl)-3-methylurea] | 5.01 to 50.1 nM | 5.01 to 50.1 nM | 5.01 to 50.1 nM | > 50.1 nM
COc1cc(NC(=O)c2ccccc2)cnc1-n1nc(C)c2cnc(-c3cnn4cccnc34)cc21 [Example 48, N-(5-methoxy-6-(3-methyl-6-(pyrazolo[1,5-a]pyrimidin-3-yl)-1H-pyrazolo[4,3-c]pyridin-1-yl)pyridin-3-yl)benzamide] | 5.01 to 50.1 nM | ≤ 5.01 nM | ≤ 5.01 nM | 5.01 to 50.1 nM
COc1cc(NS(=O)(=O)C2CC2)ccc1-n1nc(NCCN2CCOCC2)c2cnc(-c3cnn4cccnc34)cc21 [Example 34, N-(3-methoxy-4-(3-((2-morpholinoethyl)amino)-6-(pyrazolo[1,5-a]pyrimidin-3-yl)-1H-pyrazolo[4,3-c]pyridin-1-yl)phenyl)cyclopropanesulfonamide] | ≤ 5.01 nM | 5.01 to 50.1 nM | 5.01 to 50.1 nM | 5.01 to 50.1 nM

Results, then the compound that gave them:

IC50 [1] | IC50 [2] | IC50 [3] | IC50 [4] | Compound
≤ 5.01 nM | ≤ 5.01 nM | ≤ 5.01 nM | 5.01 to 50.1 nM | Cc1nn(-c2ccc(NS(C)(=O)=O)cc2OC(F)F)c2cc(-c3cnn4cccnc34)ncc12 [Example 7, N-(3-(difluoromethoxy)-4-(3-methyl-6-(pyrazolo[1,5-a]pyrimidin-3-yl)-1H-pyrazolo[4,3-c]pyridin-1-yl)phenyl)methanesulfonamide]
5.01 to 50.1 nM | ≤ 5.01 nM | 5.01 to 50.1 nM | > 50.1 nM | COc1cc(NS(=O)(=O)C2CCOCC2)ccc1-n1nc(C)c2cnc(-c3cnn4cccnc34)cc21 [Example 3, N-(3-methoxy-4-(3-methyl-6-(pyrazolo[1,5-a]pyrimidin-3-yl)-1H-pyrazolo[4,3-c]pyridin-1-yl)phenyl)tetrahydro-2H-pyran-4-sulfonamide]
≤ 5.01 nM | ≤ 5.01 nM | ≤ 5.01 nM | 5.01 to 50.1 nM | COc1cc(NS(=O)(=O)CCC(N)=O)ccc1-n1nc(C)c2cnc(-c3cnn4cccnc34)cc21 [Example 13, 3-(N-(3-methoxy-4-(3-methyl-6-(pyrazolo[1,5-a]pyrimidin-3-yl)-1H-pyrazolo[4,3-c]pyridin-1-yl)phenyl)sulfamoyl)propanamide]
≤ 5.01 nM | ≤ 5.01 nM | ≤ 5.01 nM | 5.01 to 50.1 nM | COc1cc(NS(=O)(=O)C2CC2)ccc1-n1nc(C)c2cnc(-c3cnn4cccnc34)cc21 [Example 6, N-(3-methoxy-4-(3-methyl-6-(pyrazolo[1,5-a]pyrimidin-3-yl)-1H-pyrazolo[4,3-c]pyridin-1-yl)phenyl)cyclopropanesulfonamide]
5.01 to 50.1 nM | ≤ 5.01 nM | 5.01 to 50.1 nM | 5.01 to 50.1 nM | COc1cc(NS(=O)(=O)C2CC2)ccc1-n1nc(NCCN(C)C)c2cnc(-c3cnn4cccnc34)cc21 [Example 32, N-(4-(3-((2-(dimethylamino)ethyl)amino)-6-(pyrazolo[1,5-a]pyrimidin-3-yl)-1H-pyrazolo[4,3-c]pyridin-1-yl)-3-methoxyphenyl)cyclopropanesulfonamide]
≤ 5.01 nM | ≤ 5.01 nM | ≤ 5.01 nM | 5.01 to 50.1 nM | COc1cc(NS(C)(=O)=O)ccc1-n1nc(N)c2cnc(-c3cnn4cccnc34)cc21 [Example 79, N-(4-(3-amino-6-(pyrazolo[1,5-a]pyrimidin-3-yl)-1H-pyrazolo[4,3-c]pyridin-1-yl)-3-methoxyphenyl)methanesulfonamide]
≤ 5.01 nM | ≤ 5.01 nM | ≤ 5.01 nM | 5.01 to 50.1 nM | COc1cc(CNS(=O)(=O)C2CC2)ccc1-n1nc(C)c2cnc(-c3cnn4cccnc34)cc21 [Example 64, N-(3-methoxy-4-(3-methyl-6-(pyrazolo[1,5-a]pyrimidin-3-yl)-1H-pyrazolo[4,3-c]pyridin-1-yl)benzyl)cyclopropanesulfonamide]
≤ 5.01 nM | ≤ 5.01 nM | ≤ 5.01 nM | 5.01 to 50.1 nM | COc1cc(NS(C)(=O)=O)ccc1-n1nc(C)c2cnc(-c3cnn4cccnc34)cc21 [Example 1, N-(3-methoxy-4-(3-methyl-6-(pyrazolo[1,5-a]pyrimidin-3-yl)-1H-pyrazolo[4,3-c]pyridin-1-yl)phenyl)methanesulfonamide]

Source: patent publication US20240209001A1, “HETEROCYCLIC DERIVATIVES AS JANUS KINASE INHIBITORS” (CHIESI FARMACEUTICI S.P. A., priority 2021, published 2024)
